Experimental findings from patent publication US8338423B2, “Compositions for the treatment of hyperphenylalaninemia” (Universidad de Zaragoza, priority 2007, dated 2012) are described below.

Data set [1] has as its target T1, wt-PAH (Homo sapiens, UniProt P00439).
T1 construct: made in house; host or cells: E. coli
T1 sequence (P00439 1-452): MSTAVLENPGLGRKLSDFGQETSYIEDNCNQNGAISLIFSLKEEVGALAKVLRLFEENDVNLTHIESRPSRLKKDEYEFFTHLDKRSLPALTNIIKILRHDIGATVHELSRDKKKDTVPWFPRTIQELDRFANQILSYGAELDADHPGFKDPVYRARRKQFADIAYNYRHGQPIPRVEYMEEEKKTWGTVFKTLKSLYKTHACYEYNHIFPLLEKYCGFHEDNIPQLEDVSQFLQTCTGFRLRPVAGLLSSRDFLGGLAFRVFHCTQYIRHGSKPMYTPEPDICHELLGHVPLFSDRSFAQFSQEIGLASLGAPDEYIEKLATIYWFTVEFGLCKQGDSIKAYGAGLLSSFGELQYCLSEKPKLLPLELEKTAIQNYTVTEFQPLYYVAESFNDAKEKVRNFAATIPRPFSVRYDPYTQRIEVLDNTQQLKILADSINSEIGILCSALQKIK
The experiment in a line: Quenching of PAH Trp-emission fluorescence. The format is binding. As to conditions: apparent affinity, data not shown; read-out: ligand concentration inducing a 50% decrease in Trp-fluorescence. The method, then: As expected, the stabilizing effect was concentration dependent for all four of them, being significant at 25 μM for compounds 11 and 13 (FIG. 2). […] The apparent affinities of wt-PAH for these four ligands were further studied by monitoring quenching effects of these ligands on PAH Trp-emission fluorescence (not shown). Ligands 11 and 13 induced significant fluorescence quenching, inducing a 50% decrease in Trp-fluorescence at ˜30 and ˜3 μM for ligands 11 and 13, respectively.

Data set [2] deals with T2, PAH (Mus musculus, UniProt P16331).
T2 construct: Liver homogenates were prepared at 4° C; from tissue; host or cells: liver of C57Bl/6 mice
T2 sequence (P16331 1-453): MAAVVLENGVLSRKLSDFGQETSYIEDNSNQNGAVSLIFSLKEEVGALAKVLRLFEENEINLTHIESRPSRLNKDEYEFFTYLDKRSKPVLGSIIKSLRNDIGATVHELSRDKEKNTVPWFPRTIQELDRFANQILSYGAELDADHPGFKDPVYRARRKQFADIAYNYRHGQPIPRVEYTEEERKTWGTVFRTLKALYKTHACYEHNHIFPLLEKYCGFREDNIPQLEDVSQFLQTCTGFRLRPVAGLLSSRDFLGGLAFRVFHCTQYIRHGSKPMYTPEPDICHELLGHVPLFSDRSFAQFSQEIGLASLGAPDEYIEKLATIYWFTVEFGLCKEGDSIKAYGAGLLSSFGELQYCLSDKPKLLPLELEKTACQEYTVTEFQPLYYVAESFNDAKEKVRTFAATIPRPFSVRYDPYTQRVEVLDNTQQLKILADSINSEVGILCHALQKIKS
The data set is described as follows: Hepatic PAH activity in mice after oral treatment. As to conditions: oral about 5.9 mg/kg/day for 10 days; for measured PAH activity: liver extract, control group 1.27±0.63. Format: in vivo. The method, then: (§1) Solutions of Compounds 11 and Compound 13 were prepared at concentrations of 5 mg/ml (14 mM) in 10% DMSO and 10% glucose. For that, stocks of 50 mg/ml (140 mM) of each compound in 100% DMSO were diluted 1:10 with a 10% glucose solution. Both the stocks and the final solutions of Compounds 11 and 13 are in fact suspensions since the compound is not soluble al these conditions.
Animal experiments were performed by Beat Töny (University of Zurich Children's Hospital). 25 μl/day of 10% DMSO (Group 1, control) or the solutions of Compound 11 (Group 2) or Compound 13 (Group […]) were administered orally for 10 days to young adult C57BI/6 mice (all females) exactly 12 weeks old and with weight between 19 to 23 g were in each group, i.e. in Group 2 and 3 animals were given about 5.9 mg/kg/day. Five animals were treated in each group, and no weight change was experienced upon treatment, i.e. <5% change between start and end. Animals were sacrificed at day 10 of treatment, and their livers were sectioned in two frozen immediately in liquid nitrogen, then the frozen half-livers were sent to the Department of Biomedicine, University of Bergen in dry ice. Liver homogenates were prepared at 4° C. in presence of dithiothreitol (DTT) and the protease inhibitors phenylmethylsulfonyl fluoride, leupeptin, and pepstatin as described, Elzaouk L, et al. J Biol Chem 2003; 278(30):28303-11. After homogeneization the extracts were clarified by centrifugation al 170,000 g for 30 min at 4° C.
The concentration of soluble protein was about 35 mg/ml of liver extract, similar in each group. The hepatic PAH response to oral supplementation of DMSO and of Compounds 11, 13 in 10% DMSO was analyzed b determining: • i) PAH activity, as described, after removal of free amino acids and contaminants of low molecular weight by using Zebra™ Desalt Spin columns(Pierce). • ii) Pah-mRNA expression by quantitative real-time PCR analysis, performed as reported

Data set [3] can be described thus: Solubility in dosing stocks and final solutions. The format is physicochemical. As to conditions: 50 mg/ml in 100% DMSO stock and 5 mg/ml in 10% DMSO and 10% glucose. The method, then:
as §1

Structures are written as SMILES.

Turning to `Nc1c(-c2ccc3ccccc3n2)c2ccc([N+](=O)[O-])cc2c(=O)n1Cc1ccccc1` [Compound 11, 3-amino-2-benzyl-7-nitro-4-(2-quinolyl)-1,2-dihydroisoquinolin-1-one], the EC50 in data set [1] was about 30 µM. In addition, the “measured PAH activity” value in data set [2] is 2.2±0.78. Besides, the “increase in PAH activity” value in data set [2] (liver, C57BI/6 mice) was determined as 1.65 fold. Besides, in data set [3], the solubility result is given as “not soluble”.

As for `Cc1ccnc(-n2c(=S)[nH]c3sc(C)c(C)c3c2=O)c1` [Compound 13, 5,6-dimethyl-3-(4-methyl-2-pyridinyl)-2-thioxo-2,3 dihydrothieno[2,3-d]pyrimidin-4(1H)-one], the EC50 in data set [1] was about 3 µM. For the same molecule, in data set [2], the “measured PAH activity” value was determined as 1.41±0.54. Moreover, the “increase in PAH activity (significance)” value in data set [2] (liver) is “not significant”. In addition, the solubility entry in data set [3] was “not soluble”.
